How the values were obtained:
[1] = target: human alpha1 nicotinic acetylcholine (nACh) receptor (Homo sapiens, UniProt P02708); experiment: Nicotinic acetylcholine receptor antagonism assay, IONFlux automated patch clamp (Example 203); format: cell-based; conditions: for IC50: antagonism of ACh-stimulated human alpha1 nAChR current, patch clamp; for Emax at 10 µM: maximum percentage antagonism at maximum concentration tested 10 μM; for Emax at 100 µM: maximum percentage antagonism at maximum concentration tested 100 μM
Sequence of human alpha1 nicotinic acetylcholine (nACh) receptor (P02708 21-457): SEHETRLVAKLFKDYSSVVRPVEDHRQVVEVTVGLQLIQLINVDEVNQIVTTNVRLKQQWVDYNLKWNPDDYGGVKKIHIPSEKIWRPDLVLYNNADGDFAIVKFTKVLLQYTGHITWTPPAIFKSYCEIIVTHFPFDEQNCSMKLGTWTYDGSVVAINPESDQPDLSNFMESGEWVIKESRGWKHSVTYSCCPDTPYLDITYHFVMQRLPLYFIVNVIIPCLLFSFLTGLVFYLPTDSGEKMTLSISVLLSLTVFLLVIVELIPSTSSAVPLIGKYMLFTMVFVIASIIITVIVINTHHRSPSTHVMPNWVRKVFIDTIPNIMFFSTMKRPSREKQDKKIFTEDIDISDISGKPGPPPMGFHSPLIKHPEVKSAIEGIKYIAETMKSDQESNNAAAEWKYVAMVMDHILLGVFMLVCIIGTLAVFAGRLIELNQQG
Sequence of human alpha1 nicotinic acetylcholine (nACh) receptor (P11230 24-501 partner): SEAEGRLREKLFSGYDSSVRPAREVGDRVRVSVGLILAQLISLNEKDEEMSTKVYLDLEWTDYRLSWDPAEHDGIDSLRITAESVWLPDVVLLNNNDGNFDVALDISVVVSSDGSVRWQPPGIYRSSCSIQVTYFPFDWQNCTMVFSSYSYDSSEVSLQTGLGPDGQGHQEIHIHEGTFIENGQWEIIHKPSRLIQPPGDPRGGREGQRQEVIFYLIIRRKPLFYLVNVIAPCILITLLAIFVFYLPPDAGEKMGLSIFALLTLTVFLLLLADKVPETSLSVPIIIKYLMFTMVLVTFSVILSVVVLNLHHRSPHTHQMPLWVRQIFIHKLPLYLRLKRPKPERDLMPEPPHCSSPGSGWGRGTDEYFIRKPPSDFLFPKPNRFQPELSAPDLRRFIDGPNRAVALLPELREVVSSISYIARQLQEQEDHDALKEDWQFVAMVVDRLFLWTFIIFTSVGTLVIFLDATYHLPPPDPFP
Sequence of human alpha1 nicotinic acetylcholine (nACh) receptor (Q07001 22-517 partner): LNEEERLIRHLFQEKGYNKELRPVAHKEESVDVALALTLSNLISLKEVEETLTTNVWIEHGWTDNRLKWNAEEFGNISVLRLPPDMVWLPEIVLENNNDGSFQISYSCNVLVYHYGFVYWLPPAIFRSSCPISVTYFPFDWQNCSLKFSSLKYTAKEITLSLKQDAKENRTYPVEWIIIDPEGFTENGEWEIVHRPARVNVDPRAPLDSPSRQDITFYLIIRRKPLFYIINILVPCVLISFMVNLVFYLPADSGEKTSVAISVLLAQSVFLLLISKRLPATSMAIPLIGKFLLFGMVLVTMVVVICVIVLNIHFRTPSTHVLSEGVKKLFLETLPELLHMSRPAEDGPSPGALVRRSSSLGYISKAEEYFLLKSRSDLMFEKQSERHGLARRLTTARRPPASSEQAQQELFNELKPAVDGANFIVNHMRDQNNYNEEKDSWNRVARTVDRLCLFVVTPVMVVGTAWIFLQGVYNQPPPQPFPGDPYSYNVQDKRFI
Procedure, shortened: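 Cells expressing human α1 nAChR were incubated with a compound dose response (top 10 μM or 100 μM), then stimulated with ACh (10 mM), and peak current was read by automated patch clamp. % inhibition was taken against ACh-alone control, corrected for vehicle and run-down, and fit non-linearly for IC50; runs were averaged.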

[2] = target: anti-cotinine antibody (SEQ ID NO: 11/12, rabbit variable region with human IgG1 Fc DE mutation); experiment: SPR binding of anti-cotinine antibody to ARM compounds, Biacore T200, 37° C. (Example 202); conditions: SPR Biacore T200, 37° C., pH 7.4, antibody SEQ ID NO: 11/12 captured on protein A; Kd in molar
Procedure, shortened: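 Antibody captured on a protein A chip; ARM compounds injected at 100 μL/min (200 s association, 2000 s dissociation), 3-fold 5-point series from 200 nM, at 37 °C in HEPES pH 7.4 buffer with 0.005% P20 and 1% DMSO. Double-referenced sensorgrams fit 1:1 for kon, koff, Kd (koff/kon), residence time (1/koff); pKd averaged across runs.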

[3] = system: CCR2 expressing cells (CD11b+Ly6c+Hi) in peripheral blood; experiment: In vivo depletion assay, flow cytometry of peripheral blood (Example 201); set-up: species or system human CCR2 knock-in mice (C57 background); conditions: hCCR2 knock-in mice, IV 0.1 mpk compound + 10 mpk anti-cotinine antibody (SEQ ID NO: 13/14), peripheral blood at 48 hr
Procedure, shortened: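 Mice dosed with compound formulated in saline/DMSO/PBS, with anti-cotinine antibody (rabbit variable region, mouse IgG2a Fc) where required, pre-incubated 30 min at room temperature. Terminal peripheral blood RBC-lysed, Fc-blocked, stained for CD45, CD3, CD11b, Ly6C, human CCR2 and 7AAD; percent depletion of CD11b+Ly6c+Hi cells determined by flow cytometry.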

| Structure (SMILES) | IC50 [1] | Emax at 30 µM ([1]; maximum percentage antagonism at maximum concentration tested 30 μM, read-out: Maximum Response) | pKd of Antibody for ARM Compound of Formula (I) [2] | % Depletion of CCR2 expressing cells [3] | Emax at 10 µM ([1]; read-out: Maximum Response) | Emax at 100 µM ([1]; read-out: Maximum Response) |
| --- | --- | --- | --- | --- | --- | --- |
| CC(C)N(C)[C@@H]1CC[C@H](N2CC[C@H](Nc3ncnc4ccc(C(F)(F)F)cc34)C2=O)[C@H](NC(=O)[C@H]2CC[C@H](NC(=O)CCCOC[C@H]3CC[C@@H](COCCNC(=O)[C@H]4CC(=O)N(C)[C@@H]4c4cccnc4)CC3)CC2)C1 [Example 57, (2S,3S)-N-(2-(((1S,4R)-4-((4-(((1R,4R)-4-(((1R,2S,5R)-5-(Isopropyl(methyl)amino)-2-((S)-2-oxo-3-((6-(trifluoromethyl)quinazolin-4-yl)amino)pyrrolidin-1-yl)cyclohexyl)carbamoyl)cyclohexyl)amino)-4-oxobutoxy)methyl)cyclohexyl)methoxy)ethyl)-1-methyl-5-oxo-2-(pyridin-3-yl)pyrrolidine-3-carboxamide] | ≥ 30 µM | 47.6% | 9.685 | 77% |  |  |
| CC(C)N(C)[C@@H]1CC[C@H](N2CC[C@H](Nc3ncnc4ccc(C(F)(F)F)cc34)C2=O)[C@H](NC(=O)[C@H]2CC[C@@H](CC(=O)CCCOC[C@H]3CC[C@H](COCCNC(=O)[C@H]4CC(=O)N(C)[C@@H]4c4cccnc4)CC3)CC2)C1 [Example 60, (2S,3S)-N-(2-(((1R,4S)-4-(((5-((1S,4S)-4-(((1R,2S,5R)-5-(Isopropyl(methyl)amino)-2-((S)-2-oxo-3-((6-(trifluoromethyl)quinazolin-4-yl)amino)pyrrolidin-1-yl)cyclohexyl)carbamoyl)cyclohexyl)-4-oxopentyl)oxy)methyl)cyclohexyl)methoxy)ethyl)-1-methyl-5-oxo-2-(pyridin-3-yl)pyrrolidine-3-carboxamide] | ≥ 10 µM |  | 9.4635 | 90% | 18.2% |  |
| CC(C)N(C)[C@@H]1CC[C@H](N2CC[C@H](Nc3ncnc4ccc(C(F)(F)F)cc34)C2=O)[C@H](NC(=O)CCNC(=O)CCCOC[C@H]2CC[C@@H](COCCNC(=O)[C@H]3CC(=O)N(C)[C@@H]3c3cccnc3)CC2)C1 [Example 62, (2S,3S)-N-(2-(((1S,4R)-4-((4-((3-(((1R,2S,5R)-5-(Isopropyl(methyl)amino)-2-((S)-2-oxo-3-((6-(trifluoromethyl)quinazolin-4-yl)amino)pyrrrolidin-1-yl)cyclohexyl)amino)-3-oxopropyl)amino)-4-oxobutoxy)methyl)cyclohexyl)methoxy)ethyl)-1-methyl-5-oxo-2-(pyridin-3-yl)pyrrolidine-3-carboxamide] | 29 µM |  | 9.6305 | 56% |  | 67.9% |
| CC(C)N(C)[C@@H]1CC[C@H](N2CC[C@H](Nc3ncnc4ccc(C(F)(F)F)cc34)C2=O)[C@H](NC(=O)[C@H]2CC[C@@H](NC(=O)CCOCCOCCNC(=O)CNC(=O)[C@H]3CC(=O)N(C)[C@@H]3c3cccnc3)CC2)C1 [Example 63, (2S,3S)-N-(2-((2-(2-(3-(((1S,4s)-4-(((1R,2S,5R)-5-(Isopropyl(methyl)amino)-2-((S)-2-oxo-3-((6-(trifluoromethyl)quinazolin-4-yl)amino)pyrrolidin-1-yl)cyclohexyl)carbamoyl)cyclohexyl)amino)-3-oxopropoxy)ethoxy)ethyl)amino)-2-oxoethyl)-1-methyl-5-oxo-2-(pyridin-3-yl)pyrrolidine-3-carboxamide] | 38.5 µM |  | 8.674 | 82% |  | 76.6% |
| CC(C)N(C)[C@@H]1CC[C@H](N2CC[C@H](Nc3ncnc4ccc(C(F)(F)F)cc34)C2=O)[C@H](NC(=O)CCOCCOCCNC(=O)CCOCCOCCNC(=O)[C@H]2CC(=O)N(C)[C@@H]2c2cccnc2)C1 [Example 76, (2S,3S)-N-(19-(((1R,2S,5R)-5-(Isopropyl(methyl)amino)-2-((S)-2-oxo-3-((6-(trifluoromethyl)quinazolin-4-yl)amino)pyrrolidin-1-yl)cyclohexyl)amino)-9,19-dioxo-3,6,13,16-tetraoxa-10-azanonadecyl)-1-methyl-5-oxo-2-(pyridin-3-yl)pyrrolidine-3-carboxamide] | 32.4 µM |  | 9.1155 | 65% |  | 67.7% |
| CC(C)N(C)[C@@H]1CC[C@H](N2CC[C@H](Nc3ncnc4ccc(C(F)(F)F)cc34)C2=O)[C@H](NC(=O)[C@H]2CC[C@@H](NC(=O)COCCNC(=O)COCCNC(=O)[C@H]3CC(=O)N(C)[C@@H]3c3cccnc3)CC2)C1 [Example 99, (2S,3S)-N-(2-(2-((2-(2-(((1S,4s)-4-(((1R,2S,5R)-5-(Isopropyl(methyl)amino)-2-((S)-2-oxo-3-((6-(trifluoromethyl)quinazolin-4-yl)amino)pyrrolidin-1-yl)cyclohexyl)carbamoyl)cyclohexyl)amino)-2-oxoethoxy)ethyl)amino)-2-oxoethoxy)ethyl)-1-methyl-5-oxo-2-(pyridin-3-yl)pyrrolidine-3-carboxamide] | 33.1 µM |  | 9.062 | 80% |  | 71.1% |
| CC(C)N(C)[C@@H]1CC[C@H](N2CC[C@H](Nc3ncnc4ccc(C(F)(F)F)cc34)C2=O)[C@H](NC(=O)CCOCCNC(=O)COCCNC(=O)COCCNC(=O)[C@H]2CC(=O)N(C)[C@@H]2c2cccnc2)C1 [Example 102, (2S,3S)-N-(18-(((1R,2S,5R)-5-(Isopropyl(methyl)amino)-2-((S)-2-oxo-3-((6-(trifluoromethyl)quinazolin-4-yl)amino)pyrrolidin-1-yl)cyclohexyl)amino)-5,11,18-trioxo-3,9,15-trioxa-6,12-diazaoctadecyl)-1-methyl-5-oxo-2-(pyridin-3-yl)pyrrolidine-3-carboxamide] | 66.1 µM |  | 9.076 | 91% |  | 61.3% |
| CC(C)N(C)[C@@H]1CC[C@H](N2CC[C@H](Nc3ncnc4ccc(C(F)(F)F)cc34)C2=O)[C@H](NC(=O)CCOCCNC(=O)CCOCCNC(=O)COCCNC(=O)[C@H]2CC(=O)N(C)[C@@H]2c2cccnc2)C1 [Example 105, (2S,3S)-N-(19-(((1R,2S,5R)-5-(Isopropyl(methyl)amino)-2-((S)-2-oxo-3-((6-(trifluoromethyl)quinazolin-4-yl)amino)pyrrolidin-1-yl)cyclohexyl)amino)-5,12,19-trioxo-3,9,16-trioxa-6,13-diazanonadecyl)-1-methyl-5-oxo-2-(pyridin-3-yl)pyrrolidine-3-carboxamide] | 38.9 µM |  | 9.0705 | 95% |  | 75.7% |
| CC(C)N(C)[C@@H]1CC[C@H](N2CC[C@H](Nc3ncnc4ccc(C(F)(F)F)cc34)C2=O)[C@H](NC(=O)CCOCCNC(=O)[C@H]2CC[C@@H](NC(=O)COCCNC(=O)[C@H]3CC(=O)N(C)[C@@H]3c3cccnc3)CC2)C1 [Example 107, (2S,3S)-N-(2-(2-(((1S,4R)-4-((2-(3-(((1R,2S,5R)-5-(Isopropyl(methyl)amino)-2-((S)-2-oxo-3-((6-(trifluoromethyl)quinazolin-4-yl)amino)pyrrolidin-1-yl)cyclohexyl)amino)-3-oxopropoxy)ethyl)carbamoyl)cyclohexyl)amino)-2-oxoethoxy)ethyl)-1-methyl-5-oxo-2-(pyridin-3-yl)pyrrolidine-3-carboxamide] | ≥ 10 µM |  | 9.161 | 96% | 12.2% |  |
| CC(C)N(C)[C@@H]1CC[C@H](N2CC[C@H](Nc3ncnc4ccc(C(F)(F)F)cc34)C2=O)[C@H](NC(=O)COCCNC(=O)COCCNC(=O)COCCNC(=O)[C@H]2CC(=O)N(C)[C@@H]2c2cccnc2)C1 [Example 111, (2S,3S)-N-(17-(((1R,2S,5R)-5-(Isopropyl(methyl)amino)-2-((S)-2-oxo-3-((6-(trifluoromethyl)quinazolin-4-yl)amino)pyrrolidin-1-yl)cyclohexyl)amino)-5,11,17-trioxo-3,9,15-trioxa-6,12-diazaheptadecyl)-1-methyl-5-oxo-2-(pyridin-3-yl)pyrrolidine-3-carboxamide] | 52.9 µM |  | 9.0855 | 50% |  | 67.6% |
| CC(C)N(C)[C@@H]1CC[C@H](N2CC[C@H](Nc3ncnc4ccc(C(F)(F)F)cc34)C2=O)[C@H](NC(=O)[C@H]2CC[C@@H](NC(=O)CCCOCCCCOCCNC(=O)[C@H]3CC(=O)N(C)[C@@H]3c3cccnc3)CC2)C1 [Example 122, (2S,3S)-N-(2-(4-(4-(((1S,4s)-4-(((1R,2S,5R)-5-(Isopropyl(methyl)amino)-2-((S)-2-oxo-3-((6-(trifluoromethyl)quinazolin-4-yl)amino)pyrrolidin-1-yl)cyclohexyl)carbamoyl)cyclohexyl)amino)-4-oxobutoxy)butoxy)ethyl)-1-methyl-5-oxo-2-(pyridin-3-yl)pyrrolidine-3-carboxamide] | ≥ 10 µM |  | 9.146 | 94% | 23% |  |
